Reference: patent publication US20200069691A1, “HETEROCYCLIC COMPOUNDS AS HIV PROTEASE INHIBITORS” (Merck Sharp & Dohme Corp., priority 2016, published 2020)

Target: T1, wild-type HIV-1 protease (Human immunodeficiency virus type 1 group M subtype B, UniProt P04585)
T1 construct: Escherichia coli expressed wild-type HIV-1 protease protein
Experiment: Assay for Inhibition of Microbial Expressed HIV Protease (peptide substrate cleavage, LC-MS/MS readout)
Format: biochemical
Conditions: E. coli expressed wild-type HIV-1 protease, mean of at least two independent experiments, read-out: HIV Pr Enzyme HIV1 PR IC50
Procedure, shortened: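 E. coli-expressed wild-type HIV-1 protease ([…]) was preincubated with inhibitor 30 min at room temperature in pH 5.5 acetate buffer (100 mM NaCl, 0.1% BSA). Then 400 μM octapeptide substrate was added and reacted 1 h at 30 °C; inhibition came from LC-MS/MS product peak areas, mean of ≥2 experiments.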

| Compound | IC50 |
| --- | --- |
| CC(C)CC[C@]1(c2ccccc2)NC(=N)N([C@H](C)c2cccc(C(=O)N3Cc4cncnc4C3)c2)C1=O [Compound 216, 3-{(1R)-1-[3-(5,7-dihydro-6H-pyrrolo[3,4-d]pyrimidin-6-ylcarbonyl)phenyl]ethyl}-2-imino-5-(3-methylbutyl)-5-phenylimidazolidin-4-one] | 10.2 nM |
| COc1ccc2c(c1)CCN(C(=O)c1cc(CN3C(=N)NC(CCC(C)C)(c4ccccc4)C3=O)ccc1C(F)(F)F)CC2 (stereo not shown) [Compound 154, 2-imino-3-{3-[(7-methoxy-1,2,4,5-tetrahydro-3H-3-benzazepin-3-yl)carbonyl]-4-(trifluoromethyl)-benzyl}-5-(3-methylbutyl)-5-phenylimidazolidin-4-one] | 10.2 nM |
| N=C1NC(c2ccccc2)(c2ccccc2)C(=O)N1Cc1cccc(C(=O)N2CCn3ccnc3C2)c1 [Compound 339, 3-[3-(5,6-dihydroimidazo[1,2-a]pyrazin-7(8H)-ylcarbonyl)benzyl]-2-imino-5,5-diphenylimidazolidin-4-one] | 75.8 nM |
| N=C1N[C@](CCCC(F)(F)F)(c2ccc(F)cc2)C(=O)N1Cc1ccc(C(F)(F)F)c(C(=O)N2Cc3cnc(-c4cnc(-c5ccc(F)cc5)o4)nc3C2)c1 [Compound 113, (5R)-5-(4-fluorophenyl)-3-[3-({2-[2-(4-fluorophenyl)-1,3-oxazol-5-yl]-5,7-dihydro-6H-pyrrolo[3,4-d]pyrimidin-6-yl}carbonyl)-4-(trifluoromethyl)benzyl]-2-imino-5-(4,4,4-trifluorobutyl)imidazolidin-4-one] | 31.9 nM |
| N=C1NC(c2ccc(F)cc2)(c2ccc(F)cc2)C(=O)N1Cc1cccc(C(=O)N2Cc3cnc(C(F)(F)F)nc3C2)c1 [Compound 211, 5,5-bis(4-fluorophenyl)-2-imino-3-(3-{[2-(trifluoromethyl)-5,7-dihydro-6H-pyrrolo[3,4-d]pyrimidin-6-yl]carbonyl}benzyl) imidazolidin-4-one] | 29.1 nM |
| N=C1NC(c2ccc(F)cc2)(c2ccc(F)cc2)C(=O)N1Cc1cccc(C(=O)N2Cc3cncnc3C2)c1 [Compound 215, 3-[3-(5,7-dihydro-6H-pyrrolo[3,4-d]pyrimidin-6-ylcarbonyl)benzyl]-5,5-bis(4-fluorophenyl)-2-iminoimidazolidin-4-one] | 23 nM |
| N=C1N[C@](CCCC(F)(F)F)(c2ccc(F)cc2)C(=O)N1Cc1ccc(C(F)(F)F)c(C(=O)N2Cc3cnc(N[C@@H]4CCOC4)nc3C2)c1 [Compound 36, (5R)-5-(4-fluorophenyl)-2-imino-3-[3-({2-[(3R)-tetrahydrofuran-3-ylamino]-5,7-dihydro-6H-pyrrolo[3,4-d]pyrimidin-6-yl}carbonyl)-4-(trifluoromethyl)-benzyl]-5-(4,4,4-trifluorobutyl)-imidazolidin-4-one] | 3.51 nM |
| N=C1NC(c2ccccc2)(c2ccccc2)C(=O)N1Cc1ccc(Cl)c(C(=O)N2CCNC(=O)C2)c1 [Compound 380, 4-({2-chloro-5-[(2-imino-5-oxo-4,4-diphenylimidazolidin-1-yl)methyl]phenyl}carbonyl) piperazin-2-one] | 11.2 nM |
| CC(C)CC[C@]1(c2ccccc2)NC(=N)N(Cc2ccc(C(F)(F)F)c(C(=O)N3Cc4nccnc4C3)c2)C1=O [Compound 30, (5R)-3-[3-(5,7-dihydro-6H-pyrrolo[3,4-b]pyrazin-6-ylcarbonyl)-4-(trifluoromethyl)-benzyl]-2-iirrino-5-(3-methylbutyl)-5-phenylimidazolidin-4-one] | 3.08 nM |
| Cn1ccc2c(-c3ncc4c(n3)CN(C(=O)c3cc(CN5C(=N)N[C@](CCCC(F)(F)F)(c6ccc(F)cc6)C5=O)ccc3C(F)(F)F)C4)cccc21 [Compound 41, (5R)-5-(4-fluorophenyl)-2-imino-3-[3-{[2-(1-methyl-1H-indol-4-yl)-5,7-dihydro-6H-pyrrolo[3,4-d]pyrimidin-6-yl]carbonyl}-4-(trifluoromethyl)benzyl]-5-(4,4,4-trifluorobutyl)imidazolidin-4-one] | 4.23 nM |
| N=C1N[C@](CCCC(F)(F)F)(c2ccc(F)cc2)C(=O)N1Cc1ccc(C(F)(F)F)c(C(=O)N2Cc3cnc(-c4cc(F)cc(F)c4)nc3C2)c1 [Compound 121, (5R)-3-[3-{[2-(3,5-difluorophenyl)-5,7-dihydro-6H-pyrrolo[3,4-d]pyrimidin-6-yl]carbonyl}-4-(trifluoromethyl)benzyl]-5-(4-fluorophenyl)-2-imino-5-(4,4,4-trifluorobutyl)imidazolidin-4-one] | 44.3 nM |
| COc1ccc(CN2C(=N)NC(c3ccc(Cl)cc3)(c3ccc(Cl)cc3)C2=O)cc1C(=O)N1Cc2ccccc2C1 [Compound 388, 5,5-bis(4-chlorophenyl)-3-[3-(1,3-dihydro-2H-isoindol-2-ylcarbonyl)-4-methoxybenzyl]-2-iminoimidazolidin-4-one] | 54.3 nM |
| N#Cc1ncc2c(n1)CN(C(=O)c1cc(CN3C(=N)NC(c4ccccc4)(c4ccccc4)C3=O)ccc1F)C2 [Compound 384, 6-({2-fluoro-5-[(2-imino-5-oxo-4,4-diphenylimidazolidin-1-yl)methyl]phenyl}carbonyl)-6,7-dihydro-5H-pyrrolo[3,4-d]pyrimidine-2-carbonitrile] | 21.6 nM |
| N=C1NC(c2ccc(F)cc2)(c2cccc(Br)c2)C(=O)N1Cc1cccc(C(=O)N2Cc3ccccc3C2)c1 (stereo not shown) [Compound 289, 5-(3-bromophenyl)-3-[3-(1,3-dihydro-2H-isoindol-2-ylcarbonyl)benzyl]-5-(4-fluorophenyl)-2-iminoimidazolidin-4-one] | 36.1 nM |
| N=C1N[C@](CCCC(F)(F)F)(c2ccc(F)cc2)C(=O)N1Cc1ccc(C(F)(F)F)c(C(=O)N2Cc3cnc(N)nc3C2)c1 [Compound 57, (5R)-3-{3-[(2-amino-5,7-dihydro-6H-pyrrolo[3,4-d]pyrimidin-6-yl)carbonyl]-4-(trifluoromethyl)-benzyl}-5-(4-fluorophenyl)-2-imino-5-(4,4,4-trifluorobutyl)-imidazolidin-4-one] | 6.24 nM |
| N=C1N[C@](CCCC(F)(F)F)(c2ccc(F)cc2)C(=O)N1Cc1ccc(C(F)(F)F)c(C(=O)N2Cc3cnc(-c4cnn(-c5ccccc5)c4)nc3C2)c1 [Compound 72, (5R)-5-(4-fluorophenyl)-2-imino-3-[3-{[2-(1-phenyl-1H-pyrazol-4-yl)-5,7-dihydro-6H-pyrrolo[3,4-d]pyrimidin-6-yl]carbonyl}-4-(trifluoromethyl)benzyl]-5-(4,4,4-trifluorobutyl)imidazolidin-4-one] | 9.2 nM |
| N=C1NC(CCC2CC2)(c2cccc(F)c2)C(=O)N1Cc1ccc(C(F)(F)F)c(C(=O)N2Cc3nccnc3C2)c1 (stereo not shown) [Compound 26, 5-(2-cyclopropylethyl)-3-[3-(5,7-dihydro-6H-pyrrolo[3,4-b]pyrazin-6-ylcarbonyl)-4-(trifluoromethyl)benzyl]-5-(3-fluorophenyl)-2-iminoimidazolidin-4-one] | 2.85 nM |
| N=C1NC(c2ccccc2)(c2ccccc2)C(=O)N1Cc1cccc(C(=O)N2Cc3nccnc3C2)c1 [Compound 219, 3-[3-(5,7-dihydro-6H-pyrrolo[3,4-b]pyrazin-6-ylcarbonyl)benzyl]-2-imino-5,5-diphenylimidazolidin-4-one] | 11 nM |
| CC(C)CC1(c2ccccc2)NC(=N)N(Cc2ccc(C(F)(F)F)c(C(=O)N3CCC3)c2)C1=O (stereo not shown) [Compound 179, 3-[3-(azetidin-1-ylcarbonyl)-4-(trifluoromethyl)benzyl]-2-imino-5-(2-methylpropyl)-5-phenylimidazolidin-4-one] | 78.6 nM |
